Results: doi:10.1101/2021.09.30.462449v1 (biorxiv, 2021)

What was measured:
Assay in all cases: biochemical
Conditions in all cases: read-out: % inhibition mean (Z'Lyte)
CSNK2A2 (CK2 alpha 2) = CSNK2A2 (CK2 alpha 2) (Homo sapiens, UniProt P19784)
ADRBK2 (GRK3) = ADRBK2 (GRK3) (Homo sapiens, UniProt P35626)
EEF2K = EEF2K (Homo sapiens, UniProt O00418)
AURKC (Aurora C) = AURKC (Aurora C) (Homo sapiens, UniProt Q9UQB9)
SNF1LK2 = SNF1LK2 (Homo sapiens, UniProt Q9H0K1)
ITK = ITK (Homo sapiens, UniProt Q08881)
Sequence of ITK (Q08881 whole entry): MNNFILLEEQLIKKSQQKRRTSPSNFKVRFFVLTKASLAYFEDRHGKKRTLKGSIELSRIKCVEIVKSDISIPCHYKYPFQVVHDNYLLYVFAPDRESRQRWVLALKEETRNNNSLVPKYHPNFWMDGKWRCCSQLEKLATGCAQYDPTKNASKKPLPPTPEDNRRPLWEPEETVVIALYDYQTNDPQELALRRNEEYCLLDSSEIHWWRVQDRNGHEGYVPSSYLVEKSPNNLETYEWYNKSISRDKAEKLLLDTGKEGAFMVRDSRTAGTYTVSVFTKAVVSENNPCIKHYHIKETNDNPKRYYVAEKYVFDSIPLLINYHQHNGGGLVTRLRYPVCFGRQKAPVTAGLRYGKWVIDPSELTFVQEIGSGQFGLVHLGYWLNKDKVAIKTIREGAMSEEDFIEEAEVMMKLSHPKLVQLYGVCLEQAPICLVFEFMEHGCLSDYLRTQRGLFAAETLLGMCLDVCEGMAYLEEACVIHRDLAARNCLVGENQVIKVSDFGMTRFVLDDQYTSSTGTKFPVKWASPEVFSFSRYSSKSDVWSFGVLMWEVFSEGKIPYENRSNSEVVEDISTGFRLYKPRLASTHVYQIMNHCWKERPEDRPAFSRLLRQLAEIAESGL

BLK = BLK (Homo sapiens, UniProt P51451)
IKBKB (IKK beta) = IKBKB (IKK beta) (Homo sapiens, UniProt O14920)
FGFR4 = FGFR4 (Homo sapiens, UniProt P22455)
PDGFRA V561D = PDGFRA V561D (Homo sapiens, UniProt P16234, V561D)
Sequence of PDGFRA V561D (P16234 whole entry V561D): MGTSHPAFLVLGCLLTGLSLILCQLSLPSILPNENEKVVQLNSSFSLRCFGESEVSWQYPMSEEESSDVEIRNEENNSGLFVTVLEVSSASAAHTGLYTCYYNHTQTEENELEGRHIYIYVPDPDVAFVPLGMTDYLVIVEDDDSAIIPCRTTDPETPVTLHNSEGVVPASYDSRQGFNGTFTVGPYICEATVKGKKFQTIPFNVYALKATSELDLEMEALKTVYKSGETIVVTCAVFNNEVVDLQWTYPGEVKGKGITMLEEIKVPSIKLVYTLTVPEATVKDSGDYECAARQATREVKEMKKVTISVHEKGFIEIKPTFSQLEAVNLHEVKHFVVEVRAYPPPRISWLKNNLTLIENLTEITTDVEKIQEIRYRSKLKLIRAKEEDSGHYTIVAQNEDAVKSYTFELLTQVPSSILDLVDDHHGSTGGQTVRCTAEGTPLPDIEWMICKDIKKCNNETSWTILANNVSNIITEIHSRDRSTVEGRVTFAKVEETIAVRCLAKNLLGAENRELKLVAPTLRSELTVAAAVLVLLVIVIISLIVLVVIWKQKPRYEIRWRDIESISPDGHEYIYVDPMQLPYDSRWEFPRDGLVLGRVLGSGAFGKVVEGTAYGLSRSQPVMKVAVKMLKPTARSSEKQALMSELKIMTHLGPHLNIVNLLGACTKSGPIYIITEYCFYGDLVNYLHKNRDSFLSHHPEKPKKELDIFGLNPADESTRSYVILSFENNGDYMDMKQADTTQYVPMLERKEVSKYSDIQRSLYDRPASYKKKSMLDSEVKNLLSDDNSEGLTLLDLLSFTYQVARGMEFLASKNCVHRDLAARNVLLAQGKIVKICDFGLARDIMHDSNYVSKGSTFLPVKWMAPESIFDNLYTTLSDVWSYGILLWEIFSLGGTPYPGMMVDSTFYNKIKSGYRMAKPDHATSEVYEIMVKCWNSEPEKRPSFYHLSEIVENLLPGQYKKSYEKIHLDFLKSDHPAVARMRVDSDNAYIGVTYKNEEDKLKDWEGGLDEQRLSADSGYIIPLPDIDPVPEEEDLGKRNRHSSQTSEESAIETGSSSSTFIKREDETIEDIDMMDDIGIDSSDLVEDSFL

PRKCE (PKC epsilon) = PRKCE (PKC epsilon) (Homo sapiens, UniProt Q02156)
INSR = INSR (Homo sapiens, UniProt P06213)
FGFR2 = FGFR2 (Homo sapiens, UniProt P21802)
HIPK1 (Myak) = HIPK1 (Myak) (Homo sapiens, UniProt Q86Z02)
FER = FER (Homo sapiens, UniProt P16591)
PLK3 = PLK3 (Homo sapiens, UniProt Q9H4B4)
AMPK A1/B1/G1 = AMPK A1/B1/G1 (Homo sapiens, UniProt Q13131)
STK22B (TSSK2) = STK22B (TSSK2) (Homo sapiens, UniProt Q96PF2)
RET Y791F = RET Y791F (Homo sapiens, UniProt P07949, Y791F)
KSR2 = KSR2 (Homo sapiens, UniProt Q6VAB6)
NEK2 = NEK2 (Homo sapiens, UniProt P51955)
CDK5/p25 = CDK5/p25 (Homo sapiens, UniProt Q00535)
MAP3K8 (COT) = MAP3K8 (COT) (Homo sapiens, UniProt P41279)
Sequence of MAP3K8 (COT) (P41279 whole entry): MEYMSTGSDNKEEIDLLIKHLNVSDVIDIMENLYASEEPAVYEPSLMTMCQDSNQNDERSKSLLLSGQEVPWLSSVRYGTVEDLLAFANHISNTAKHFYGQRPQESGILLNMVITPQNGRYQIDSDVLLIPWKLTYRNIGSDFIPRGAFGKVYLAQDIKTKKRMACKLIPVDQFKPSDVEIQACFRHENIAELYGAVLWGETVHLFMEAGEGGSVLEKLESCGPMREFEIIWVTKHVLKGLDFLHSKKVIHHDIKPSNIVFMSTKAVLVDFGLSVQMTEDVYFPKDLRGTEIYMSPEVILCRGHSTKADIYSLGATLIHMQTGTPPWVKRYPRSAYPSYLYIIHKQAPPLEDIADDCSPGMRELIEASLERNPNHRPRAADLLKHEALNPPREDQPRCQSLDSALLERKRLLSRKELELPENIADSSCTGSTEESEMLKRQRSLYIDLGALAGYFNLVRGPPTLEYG

CSNK1E (CK1 epsilon) = CSNK1E (CK1 epsilon) (Homo sapiens, UniProt P49674)
EGFR (ErbB1) G719C = EGFR (ErbB1) G719C (Homo sapiens, UniProt P00533, G719C)
Sequence of EGFR (ErbB1) G719C (P00533 whole entry G719C): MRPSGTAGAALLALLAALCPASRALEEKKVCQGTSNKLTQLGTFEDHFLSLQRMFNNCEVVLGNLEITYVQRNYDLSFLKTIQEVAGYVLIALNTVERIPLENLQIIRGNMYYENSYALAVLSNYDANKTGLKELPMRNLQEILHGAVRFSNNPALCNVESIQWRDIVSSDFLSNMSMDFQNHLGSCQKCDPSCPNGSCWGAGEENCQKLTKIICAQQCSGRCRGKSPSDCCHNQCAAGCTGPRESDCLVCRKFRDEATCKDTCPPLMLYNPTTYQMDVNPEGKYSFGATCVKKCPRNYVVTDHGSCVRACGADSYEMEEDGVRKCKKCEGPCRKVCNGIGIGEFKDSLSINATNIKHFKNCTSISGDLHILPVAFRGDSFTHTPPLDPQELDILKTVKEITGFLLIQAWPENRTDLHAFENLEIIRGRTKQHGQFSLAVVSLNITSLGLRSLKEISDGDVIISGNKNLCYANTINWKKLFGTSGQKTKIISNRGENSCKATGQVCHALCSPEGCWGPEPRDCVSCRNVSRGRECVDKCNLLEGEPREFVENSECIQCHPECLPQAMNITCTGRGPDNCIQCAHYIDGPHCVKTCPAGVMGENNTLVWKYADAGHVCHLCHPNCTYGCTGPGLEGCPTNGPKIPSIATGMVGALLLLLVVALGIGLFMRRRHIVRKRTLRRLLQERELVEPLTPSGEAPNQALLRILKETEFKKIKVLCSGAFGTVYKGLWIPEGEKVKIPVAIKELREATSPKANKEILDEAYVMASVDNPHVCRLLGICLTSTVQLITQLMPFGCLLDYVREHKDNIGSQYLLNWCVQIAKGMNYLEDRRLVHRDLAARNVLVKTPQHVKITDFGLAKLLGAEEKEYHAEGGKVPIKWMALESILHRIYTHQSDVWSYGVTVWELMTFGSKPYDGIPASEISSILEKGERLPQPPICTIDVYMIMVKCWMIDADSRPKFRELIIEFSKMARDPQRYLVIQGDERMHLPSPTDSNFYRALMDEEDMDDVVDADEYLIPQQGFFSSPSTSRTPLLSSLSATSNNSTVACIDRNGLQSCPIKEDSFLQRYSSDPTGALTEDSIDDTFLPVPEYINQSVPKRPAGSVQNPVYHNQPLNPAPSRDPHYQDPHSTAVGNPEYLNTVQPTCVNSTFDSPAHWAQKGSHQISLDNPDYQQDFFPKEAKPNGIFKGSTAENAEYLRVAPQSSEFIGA

MATK (HYL) = MATK (HYL) (Homo sapiens, UniProt P42679)
Sequence of MATK (HYL) (P42679 whole entry): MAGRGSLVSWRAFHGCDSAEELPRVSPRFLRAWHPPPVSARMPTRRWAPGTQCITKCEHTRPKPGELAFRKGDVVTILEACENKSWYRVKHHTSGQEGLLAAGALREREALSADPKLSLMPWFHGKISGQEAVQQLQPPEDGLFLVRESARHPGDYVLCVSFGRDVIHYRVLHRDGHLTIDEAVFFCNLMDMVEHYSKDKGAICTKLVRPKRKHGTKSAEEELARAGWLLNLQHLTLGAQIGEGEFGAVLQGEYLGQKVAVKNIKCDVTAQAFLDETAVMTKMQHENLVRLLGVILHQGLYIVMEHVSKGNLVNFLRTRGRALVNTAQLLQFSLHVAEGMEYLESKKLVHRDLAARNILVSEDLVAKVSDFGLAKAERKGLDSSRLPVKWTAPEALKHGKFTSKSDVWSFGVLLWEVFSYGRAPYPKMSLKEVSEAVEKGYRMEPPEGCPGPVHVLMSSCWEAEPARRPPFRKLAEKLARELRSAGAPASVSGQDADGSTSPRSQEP

CLK1 = CLK1 (Homo sapiens, UniProt P49759)
MAPK3 (ERK1) = MAPK3 (ERK1) (Homo sapiens, UniProt P27361)
Sequence of MAPK3 (ERK1) (P27361 whole entry): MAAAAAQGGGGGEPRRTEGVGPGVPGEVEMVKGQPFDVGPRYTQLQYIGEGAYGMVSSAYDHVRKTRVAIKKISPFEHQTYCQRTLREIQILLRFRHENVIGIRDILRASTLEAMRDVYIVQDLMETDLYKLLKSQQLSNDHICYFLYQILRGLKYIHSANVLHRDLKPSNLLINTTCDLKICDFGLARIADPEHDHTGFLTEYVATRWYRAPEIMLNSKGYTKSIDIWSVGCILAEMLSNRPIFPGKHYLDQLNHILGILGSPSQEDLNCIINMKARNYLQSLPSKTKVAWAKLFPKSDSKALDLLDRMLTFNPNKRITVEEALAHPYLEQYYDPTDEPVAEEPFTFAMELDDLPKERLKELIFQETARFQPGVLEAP

EPHA1 = EPHA1 (Homo sapiens, UniProt P21709)

Sequence of ADRBK2 (GRK3) (P35626 whole entry): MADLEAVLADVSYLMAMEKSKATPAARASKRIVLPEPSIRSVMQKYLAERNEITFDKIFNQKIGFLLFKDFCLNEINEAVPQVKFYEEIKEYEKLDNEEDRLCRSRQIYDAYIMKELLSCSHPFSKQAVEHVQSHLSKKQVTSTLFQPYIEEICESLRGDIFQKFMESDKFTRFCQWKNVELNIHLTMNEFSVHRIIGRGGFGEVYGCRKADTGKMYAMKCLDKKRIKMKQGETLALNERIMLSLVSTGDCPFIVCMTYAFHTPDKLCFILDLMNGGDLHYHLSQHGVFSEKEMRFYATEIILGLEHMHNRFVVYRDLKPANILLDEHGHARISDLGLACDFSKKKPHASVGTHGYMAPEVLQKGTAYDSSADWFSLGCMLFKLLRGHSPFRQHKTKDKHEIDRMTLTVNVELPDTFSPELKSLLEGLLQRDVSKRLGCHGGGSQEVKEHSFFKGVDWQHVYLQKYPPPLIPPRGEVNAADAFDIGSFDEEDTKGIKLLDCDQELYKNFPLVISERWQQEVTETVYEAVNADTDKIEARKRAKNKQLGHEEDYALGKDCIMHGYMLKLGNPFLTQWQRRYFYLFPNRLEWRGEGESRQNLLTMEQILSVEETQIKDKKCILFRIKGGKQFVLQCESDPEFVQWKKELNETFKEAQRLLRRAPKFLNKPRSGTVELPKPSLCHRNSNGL

`COc1ccc2nc3cc(Cl)ccc3c(Nc3cc(CN4CCCC4)c(O)c(CN4CCCC4)c3)c2n1` [Pyronaridine, 4-[(7-Chloro-2-methoxybenzo[b][1,5]naphthyridin-10-yl)amino]-2,6-bis(1-pyrrolidinylmethyl)phenol phosphate (1:4)] was tested, and the inhibition at 1 µM (CSNK2A2 (CK2 alpha 2)) was 5%, the inhibition at 1 µM (ADRBK2 (GRK3)) was -5% and the inhibition at 1 µM (EEF2K) was 1%. For the same molecule, the inhibition at 1 µM (AURKC (Aurora C)) was -11%, the inhibition at 1 µM (SNF1LK2) was -5% and the inhibition at 1 µM (ITK) was 2%. For the same molecule, the inhibition at 1 µM (BLK) was 3%, the inhibition at 1 µM (IKBKB (IKK beta)) was 1% and the inhibition at 1 µM (FGFR4) was -14%. It also gave an inhibition at 1 µM (PDGFRA V561D) of 2%, an inhibition at 1 µM (PRKCE (PKC epsilon)) of 6% and an inhibition at 1 µM (INSR) of 10%. It also gave an inhibition at 1 µM (FGFR2) of -1%, an inhibition at 1 µM (HIPK1 (Myak)) of 1% and an inhibition at 1 µM (FER) of -21%. For the same molecule, the inhibition at 1 µM (PLK3) was 28%, the inhibition at 1 µM (AMPK A1/B1/G1) was 5% and the inhibition at 1 µM (STK22B (TSSK2)) was -2%. It also gave an inhibition at 1 µM (RET Y791F) of 5%, an inhibition at 1 µM (KSR2) of 2% and an inhibition at 1 µM (NEK2) of -4%. For the same molecule, the inhibition at 1 µM (CDK5/p25) was 0%, the inhibition at 1 µM (MAP3K8 (COT)) was -6% and the inhibition at 1 µM (CSNK1E (CK1 epsilon)) was 1%. The inhibition at 1 µM (EGFR (ErbB1) G719C) was -4%, the inhibition at 1 µM (MATK (HYL)) was -2% and the inhibition at 1 µM (CLK1) was -1%. The inhibition at 1 µM (MAPK3 (ERK1)) was 6% and the inhibition at 1 µM (EPHA1) was 1%.
